Values joined by “and” are separate entries in the source; they are usually repeats but may differ in a detail not shown here. Equal values may be shown once.
Assays:
[1] = system: Functional Endoscopic Sinus Surgery (FESS) surgical wound; type: in vivo, human
Text: Study design—This study was a retrospective chart review of 94 consecutive human patients who underwent FESS and who were operated on by a single surgeon in a single center in Perth, Western Australia. FIGS. 6A and 6B show a flowchart of patients based on extent of surgery and outcomes. Only patients treated with PuraSinus alone (no other hemostatic agent was used) were included in the analysis. Ethics approval was obtained from St John of Good Health Care Human Research Ethics Committee.
Patient population—The study included adult human patients who underwent FESS procedures and also included patients who underwent FESS in combination with nasal surgery (septoplasty and/or turbinoplasty). Both primary and revision cases were included. Patients were discharged the day after surgery with a recommendation to perform saline nasal irrigations no less than four times a day. Patient characteristics, indication for surgery, extent of surgical intervention, and bleeding and adhesion information was recorded.
Surgical categories—Procedures were performed according to the minimally invasive sinus technique (MIST), including combination of maxillary antrostomy, ethmoidectomies, sphenoidotomies and frontal sinus (Draf Ila, or Draf 111), turbinate reduction and/or septoplasty. FESS procedures were categorized into two groups: complete FESS (including all sinuses—maxillary antrostomy, ethmoidectomy, sphenoidotomy, and frontal sinusotomy) or limited FESS (anything less than complete FESS, usually involves antrostomy and ethmoidectomy). The surgical extent was dictated by the patient's condition and the surgeon's clinical judgement.
Material used—PuraSinus (licensed as PuraStat in Australia, 3D-Matrix)/RADA16-I (SEQ ID NO:1) 2.5% w/v in water is a transparent SAP solution supplied sterile in a pre-filled syringe (available in a 3 mL and 5 mL form) ready for use with a thin application nozzle suited for endoscopic catheter administration. The syringe is stored at between 2° C. and 8° C. At completion of the FESS procedure, PuraSinus was applied to the surgical wound in a thin and even layer as close as possible to the bleeding point. A similar application technique has been outlined previously (M. Lee et al., Int. J. Surg. Case Rep. 41: 461-4 (2017)). […] Tissues treated with the hydrogel were visible via endoscope given the gel's transparency.
Outcomes and objectives—The objectives of this study were to evaluate the effectiveness of PuraSinus in rapidly achieving intraoperative hemostasis and to assess the incidence of delayed bleeding ([…]) and synechiae formation via endoscopic observation of the nasal mucosa at follow-up visits. Primary bleeding was defined as bleeding occurring within 24 hours of surgery.
Data analysis—Statistical analysis was performed using descriptive statistics for continuous variables and patient demographics were reported. The rate of successful hemostasis and incidence of synechiae formation were calculated as a proportion of total patients undergoing FESS.
Adhesions—Nasal endoscopic examination of each patient was performed at a first follow-up visit occurring between 7 and 30 days after surgery (median 15 days, mean±SD 14.0±3.7 days). A subsequent follow-up examination of each patient was performed on average on day 42, ranging from 28 to 79 days post-surgery. […] Debridement of the observed synechiae was performed in these cases in the outpatient setting by either suction (n=13) or scissors (n=10). […] Thus, the desired outcome of intraoperative treatment with PuraSinus (SEQ ID NO:1) in achieving recovery without synechiae formation in these patients was nearly 90% (n=84/94). None of the patients who had required additional intervention for hemostasis subsequently presented with adhesion formation.

[2] = in solution before DMEM; RADA16 assumed 2.5% wt/vol, IEIK13 concentration unknown; cited from earlier work
[3] = 1% in water; cited from earlier work
[4] = 2.5% in water; cited from earlier work
[5] = system: turbinate reduction surgery (TRS/Turbinoplasty); conditions: first follow-up at four weeks; result in words; cited from earlier work

SMILES: CC(=O)N[C@@H](CCCNC(=N)N)C(=O)N[C@@H](C)C(=O)N[C@@H](CC(=O)O)C(=O)N[C@@H](C)C(=O)N[C@@H](CCCNC(=N)N)C(=O)N[C@@H](C)C(=O)N[C@@H](CC(=O)O)C(=O)N[C@@H](C)C(=O)N[C@@H](CCCNC(=N)N)C(=O)N[C@@H](C)C(=O)N[C@@H](CC(=O)O)C(=O)N[C@@H](C)C(=O)N[C@@H](CCCNC(=N)N)C(=O)N[C@@H](C)C(=O)N[C@@H](CC(=O)O)C(=O)N[C@@H](C)C(N)=O [PuraSinus, Ac-RADARADARADARADA-NH2]
- Adhesion formation at first follow up visit, patients ([1]; 7-30 days after surgery): 18
- Persisting adhesions, patients ([1]; final outcome, of 23): 5
- Resolved adhesions, patients ([1]; final outcome, of 23): 18
- Adhesion formation, total patients ([1]; full follow-up period, n of 94): 23
- Adhesion (synechiae) formation, rate ([1]; full follow-up period, of 94 patients): 24.5%
- Pain at the surgical site ([1]; human, in vivo): all patients expressed comfort with no pain
- Patients with no adhesions found ([1]; n of 94): 71
- Adhesion location: Inferior turbinate/septum + medial turbinate/lateral wall, patients ([1]; of 23): 4
- Adhesion location: Inferior turbinate/septum, patients ([1]; of 23): 12
- Adhesion location: Medial turbinate/lateral wall, patients ([1]; of 23): 7
- Debridement by scissors (sharp), patients ([1]; of 23): 10
- Debridement by suction, patients ([1]; of 23): 13
- Patients with adhesion formation: Complete FESS ([1]; of 23): 8
- Patients with adhesion formation: Female ([1]; of 23): 16
- Patients with adhesion formation: Limited FESS ([1]; of 23): 15
- Patients with adhesion formation: Male ([1]; of 23): 7
- Patients free of adhesions, rate ([1]; second follow-up examination, of 94 patients): ~90% and 89.4%
- Patients without adhesions ([1]; second follow-up, no adhesions or adhesions easily removed by suction, of 94): 84 and 84/94
- Median loss modulus G″ [2]: 24 Pa
- Median storage modulus G′ [2]: 384 Pa
- Increase in storage modulus G′ after DMEM treatment relative to before [3]: 43.5 fold
- Storage modulus G′ [4]: about 350 Pa
- Postoperative bleeding or adhesion formation [5]: none of their patients experiencing bleeding or adhesion formation postoperatively

Reference: patent publication US20230365625A1, “METHODS FOR TREATING AND/OR PREVENTING UNDESIRABLE SEQULAE OF NASAL TURBINOPLASTY OR FUNCTIONAL ENDOSCOPIC SINUS SURGERY” (3-D Matrix, Ltd., priority 2022, published 2023)
